From the NIST ThermoML archive (doi:10.1016/j.jct.2018.11.010)
Numbers after ± are expanded uncertainties.

Assay: xn = mol fraction of the nth substance listed
Details: Liquid, Vibrating tube method

CCCCCCCO [heptan-1-ol] + CCCCOCCCC
mass density [kg/m3]
Details | x2 = 0 | x2 = 0.1488 | x2 = 0.3201 | x2 = 0.4944 | x2 = 0.7014 | x2 = 0.8534
333.15 K, 140000 kPa | – | 857.7 ± 1.4 | 850.3 ± 1.4 | 843.3 ± 1.3 | 834.8 ± 1.3 | 829 ± 1.3
353.15 K, 100 kPa | 778.1 ± 0.9 | 768 ± 0.9 | 756.6 ± 0.8 | 745.6 ± 0.8 | 732.4 ± 0.8 | 723.4 ± 0.8
353.15 K, 1000 kPa | 778.8 ± 0.9 | 768.8 ± 0.9 | 757.4 ± 0.8 | 746.6 ± 0.8 | 733.4 ± 0.8 | 724.5 ± 0.8
353.15 K, 5000 kPa | 782.3 ± 0.9 | 772.5 ± 0.9 | 761.4 ± 0.9 | 750.8 ± 0.8 | 738 ± 0.8 | 729.4 ± 0.8
353.15 K, 10000 kPa | 786.3 ± 0.9 | 776.8 ± 0.9 | 766 ± 0.9 | 755.8 ± 0.8 | 743.3 ± 0.8 | 735 ± 0.8
353.15 K, 15000 kPa | 790.2 ± 1 | 781 ± 1 | 770.4 ± 0.9 | 760.4 ± 0.9 | 748.4 ± 0.8 | 740.3 ± 0.8
353.15 K, 20000 kPa | 793.9 ± 1 | 784.8 ± 1 | 774.5 ± 0.9 | 764.8 ± 0.9 | 753.1 ± 0.8 | 745.2 ± 0.8
353.15 K, 25000 kPa | 797.3 ± 1 | 788.5 ± 1 | 778.4 ± 0.9 | 768.9 ± 0.9 | 757.4 ± 0.9 | 749.8 ± 0.8
353.15 K, 30000 kPa | 800.7 ± 1.1 | 792.1 ± 1 | 782.3 ± 1 | 772.9 ± 0.9 | 761.7 ± 0.9 | 754.1 ± 0.9
353.15 K, 35000 kPa | 804 ± 1.1 | 795.5 ± 1 | 785.8 ± 1 | 776.7 ± 0.9 | 765.6 ± 0.9 | 758.3 ± 0.9
353.15 K, 40000 kPa | 807.1 ± 1.1 | 798.6 ± 1.1 | 789.2 ± 1 | 780.1 ± 1 | 769.4 ± 0.9 | 762.1 ± 0.9
353.15 K, 45000 kPa | 810 ± 1.1 | 801.8 ± 1.1 | 792.5 ± 1 | 783.7 ± 1 | 773 ± 0.9 | 765.9 ± 0.9
353.15 K, 50000 kPa | 813 ± 1.2 | 804.9 ± 1.1 | 795.8 ± 1.1 | 787.1 ± 1 | 776.7 ± 1 | 769.6 ± 0.9
353.15 K, 55000 kPa | 815.8 ± 1.2 | 807.8 ± 1.1 | 798.8 ± 1.1 | 790.2 ± 1 | 779.9 ± 1 | 773.1 ± 1
353.15 K, 60000 kPa | 818.6 ± 1.2 | 810.7 ± 1.2 | 801.8 ± 1.1 | 793.3 ± 1 | 783.2 ± 1 | 776.5 ± 1
353.15 K, 65000 kPa | 821.2 ± 1.2 | 813.5 ± 1.2 | 804.7 ± 1.1 | 796.4 ± 1.1 | 786.3 ± 1 | 779.7 ± 1
353.15 K, 70000 kPa | 823.8 ± 1.2 | 816.2 ± 1.2 | 807.5 ± 1.1 | 799.3 ± 1.1 | 789.5 ± 1.1 | 782.9 ± 1
353.15 K, 80000 kPa | 828.7 ± 1.3 | 821.2 ± 1.2 | 812.8 ± 1.2 | 804.8 ± 1.1 | 795.2 ± 1.1 | 788.8 ± 1.1
353.15 K, 90000 kPa | 833.5 ± 1.3 | 826.2 ± 1.3 | 817.9 ± 1.2 | 810.1 ± 1.2 | 800.7 ± 1.1 | 794.4 ± 1.1
353.15 K, 100000 kPa | 837.9 ± 1.4 | 830.8 ± 1.3 | 822.7 ± 1.3 | 815.1 ± 1.2 | 805.9 ± 1.2 | 799.8 ± 1.2
353.15 K, 110000 kPa | 842.3 ± 1.4 | 835.3 ± 1.4 | 827.4 ± 1.3 | 819.9 ± 1.2 | 810.9 ± 1.2 | 804.9 ± 1.2
353.15 K, 120000 kPa | 846.4 ± 1.4 | 839.5 ± 1.4 | 831.8 ± 1.3 | 824.4 ± 1.3 | 815.6 ± 1.2 | 809.7 ± 1.2
353.15 K, 130000 kPa | 850.3 ± 1.5 | 843.7 ± 1.4 | 836 ± 1.4 | 828.7 ± 1.3 | 820.1 ± 1.3 | 814.2 ± 1.3
353.15 K, 140000 kPa | 854.3 ± 1.5 | 847.6 ± 1.5 | 840.1 ± 1.4 | 833 ± 1.4 | 824.5 ± 1.3 | 818.7 ± 1.3
373.15 K, 100 kPa | 761.9 ± 0.9 | – | – | – | – | –
373.15 K, 1000 kPa | 762.8 ± 0.9 | 752.3 ± 0.9 | 740.4 ± 0.8 | 729.1 ± 0.8 | 715.4 ± 0.8 | 706.3 ± 0.8
373.15 K, 5000 kPa | 766.6 ± 0.9 | 756.5 ± 0.9 | 744.8 ± 0.9 | 733.9 ± 0.8 | 720.7 ± 0.8 | 711.9 ± 0.8
373.15 K, 10000 kPa | 771.1 ± 0.9 | 761.3 ± 0.9 | 750 ± 0.9 | 739.6 ± 0.8 | 726.7 ± 0.8 | 718.3 ± 0.8
373.15 K, 15000 kPa | 775.5 ± 1 | 765.9 ± 1 | 754.9 ± 0.9 | 744.8 ± 0.9 | 732.4 ± 0.8 | 724.2 ± 0.8
373.15 K, 20000 kPa | 779.5 ± 1 | 770.2 ± 1 | 759.5 ± 0.9 | 749.6 ± 0.9 | 737.6 ± 0.9 | 729.7 ± 0.8
373.15 K, 25000 kPa | 783.4 ± 1 | 774.3 ± 1 | 763.9 ± 0.9 | 754.3 ± 0.9 | 742.5 ± 0.9 | 734.8 ± 0.9
373.15 K, 30000 kPa | 787.1 ± 1.1 | 778.1 ± 1 | 768 ± 1 | 758.6 ± 0.9 | 747.2 ± 0.9 | 739.6 ± 0.9
373.15 K, 35000 kPa | 790.6 ± 1.1 | 781.9 ± 1 | 772 ± 1 | 762.7 ± 1 | 751.6 ± 0.9 | 744.1 ± 0.9
373.15 K, 40000 kPa | 794 ± 1.1 | 785.4 ± 1.1 | 775.7 ± 1 | 766.7 ± 1 | 755.7 ± 0.9 | 748.5 ± 0.9
373.15 K, 45000 kPa | 797.2 ± 1.1 | 788.9 ± 1.1 | 779.3 ± 1 | 770.5 ± 1 | 759.7 ± 1 | 752.7 ± 0.9
